In patent US20230352136A1, “SYSTEMS AND METHODS TO EVALUATE DRUG-INDUCED GASTROINTESTINAL DYSRHYTHMIA” (The Chinese University of Hong Kong, priority 2022, published 2023):

How the values were obtained:
[1] = system: duodenum pacemaker potentials; test: MEA recording of pacemaker potentials (slow waves), isolated duodenum; format: cell-based, Suncus murinus; details: for amplitude of slow waves: duodenum
Description: (§1) Pacemaker potentials were recorded extracellularly on a 60-channel MEA system using full-thickness GI segments isolated from Suncus murinus. Basic slow-wave parameters, including frequency, amplitude, slope, period, and power partitions, were derived. Signal regularity was also evaluated using detrended fluctuation analysis and sample entropy analysis.
(§2) Electrical recordings were taken after the animals were euthanised by carbon dioxide asphyxiation. […] The mesentery was removed, and the lumen contents were flushed with Krebs' medium. Segments (−1 cm) of duodenum, ileum, and colon were then isolated, but the stomach was kept intact. All tissue segments and the entire stomach were incubated in Krebs' medium containing nifedipine (1 μM; Sigma Aldrich, St Louis, MO, USA) for 15 min to inhibit smooth muscle activity. Pacemaker potentials were recorded using an MEA platform (MEA1060 1200×; Multichannel Systems, Reutlingen, Germany) as previously described. Briefly, tissues were placed onto the electrode field of an MEA chip (60-channel, 8×8 configuration, 3D-tip-shaped electrodes with a height of […] and an inter-electrode distance of 200 μm; Ayanda Biosystems SA, Lausanne, Switzerland). Intestinal segments were aligned horizontally to the recording electrode field, while the stomach was oriented with the antrum facing the recording electrode field. The chamber temperature was maintained at 37° C. and the sampling frequency was 1 kHz. […] All data were recorded and saved using MC_Rack (v 4.6.2, Multichannel Systems).
(§3) Data analysis included basic slow-wave feature extraction using a custom automated program. […] The time point of drug administration was automatically identified based on the signal disturbance. The period of signal disturbance (20 s before and 40 s after the peak of the disturbance) was excluded from the analysis. Data were filtered using a passband between 0.1 Hz and 1 Hz and a stopband between 0.01 Hz and 2 Hz. The basic slow-wave features extracted were similar to those extracted in the inventors' previous studies. However, instead of using several templates and scripts written in Microsoft Excel and Spike 2, a one-step automatic and blinded MATLAB programme was used for data analysis. There were four major changes to the data analysis process as compared to the inventors' previous studies. First, auto-identification of the drug disturbance time point was used, rather than manual identification. Second, standardised signal filters were built in MATLAB to match the entire data analysis pipeline. […] Frequency partitioning was performed by segmenting the power spectrum of 0-50 cpm into the following four segments: brady-rhythm (within the range 2-[DF−1] cpm), normal-rhythm ([DF±1] cpm), tachy-rhythm (within the range [DF+1]-40 cpm), and out-of-range frequencies (<2 cpm and >40 cpm). Third, waveforms were identified using the MATLAB ‘findpeaks’ function, with a minimum peak height of […] at baseline and […] after drug treatment, with a step time of 5.4 s for the intestine and 12 s for the stomach. The average peak-to-peak amplitude, slope, and period were derived for all detected waveforms. Fourth, propagation velocity was derived using phase-difference measurements, based on the auto-select seed electrode with the highest percentage of normal rhythms.
(§4) Dominant activation pattern identification included a phase-based analysis performed as previously described (Liu et al., 2021). Briefly, high-frequency spikes with amplitudes greater than […] were masked. Continuous frequencies were identified using continuous wavelet transformation, and the transformed data were used to plot spectrograms. […] High quality data were subjected to Hilbert transformation to identify the phase and frequency of the signals. Individual activation times were clustered using k-means clustering every 20 s and major activation patterns were grouped using a structural similarity index.

[2] = system: colon pacemaker potentials; test: MEA recording of pacemaker potentials (slow waves), isolated colon; format: cell-based, Suncus murinus; details: colonic tissues
Description: as §1, §2, §3, §4

[3] = duodenal tissues, 0.1-100 μM, p>0.05, n=5-9

For `Cl.NCCc1ccc(O)c(O)c1` [dopamine, 3-Hydroxytyramine hydrochloride], the “average frequency (AF)” value ([1]; duodenal tissues, 100 μM, baseline 25.1±3.7, p<0.05, n=5) was 22.2±5.4 cpm, the “dominant frequency (DF) of slow waves” value ([1]; duodenal tissues, 100 μM, baseline 28.6±4.1, p<0.05, n=5) was 26.3±5.2 cpm and the “percentage of dominant baseline activation patterns, first pattern” value ([1]; duodenal tissues, 100 μM, baseline 29.3±5.5, p<0.01, n=4) was 7.0±7.0%. For the same compound, the percentage of brady-rhythms ([1]; duodenal tissues, 100 μM, baseline 43.3±11.6, p<0.05, n=5) was 68.6±29.0%, the slope of waveforms ([1]; duodenal tissues, 100 μM, baseline 322.2±108.6, p<0.01, n=5) was 182.5±61.7 μV s^−1 and the “percentage of dominant baseline activation patterns, second pattern” value ([1]; duodenal tissues, 100 μM, baseline […], p<0.05, n=4) was 7.4±4.1%. For the same compound, the “dominant power (DP), change vs baseline” value [1, 3] was “No significant differences”, the “propagation velocities, effect” value [1, 3] was “did not affect” and the “average SampEn (larger scale 6-50), effect” value ([1]; duodenal tissues, 0.1-100 μM, p>0.05, n=6-9) was “did not change”. For the same compound, the “DFA fluctuation function (smaller scale 3-25)” value ([1]; duodenal tissues, 100 M, baseline 2.26±0.16, p<0.05, n=9) was 2.18±0.16, the percentage of tachy-rhythms ([1]; duodenal tissues, 100 M, baseline 11.0±5.2, p<0.05, n=5) was 5.4±4.9% and the “amplitude of slow waves” value ([1]; 100 nM, baseline 193.0±54.9, p<0.01, n=7) was 114.1±37.7 μV. The “amplitude of slow waves” value ([1]; 10 μM, baseline 117.6±24.2, p<0.05, n=9) was 97.4±13.7 μV, the “amplitude of slow waves” value ([1]; 100 μM, baseline 199.3±60.5, p<0.01, n=5) was 121.1±27.3 μV and the “average SampEn (larger scale 6-50)” value ([2]; 100 nM, baseline 0.33±0.06, p<0.01, n=6) was 0.28±0.07. The “average SampEn (smaller scale 1-5)” value ([2]; 100 nM, baseline 0.59±0.03, p<0.01, n=6) was 0.62±0.03, the “DFA fluctuation function (larger scale 26-46)” value ([2]; 100 nM, baseline 1.80±0.09, p<0.001, n=6) was 1.58±0.11 and the “DFA fluctuation function (smaller scale 3-25)” value ([2]; 100 nM, baseline 2.37±0.07, p<0.01, n=6) was 2.26±0.06. The “average frequency (AF)” value ([2]; 100 nM, baseline 23.9±2.4, p<0.05, n=7) was 23.3±1.6 cpm, the “DFA fluctuation function (smaller scale 3-25)” value ([2]; 1 μM, baseline 2.30±0.33, p<0.05, n=8) was 2.23±0.34 and the “number of groups of activation patterns” value ([2]; 1 μM, baseline 5.4±1.0, p<0.05, n=6) was 6.4±1.1. For the same compound, the percentage of tachy-rhythms ([2]; 1 μM, baseline 18.3±12.6, p<0.05, n=6) was 55.5±34.8%, the “percentage of dominant patterns (based on post-treatment data, FIG. 3E), first pattern” value ([2]; 1 μM, baseline 19.1±12.2, p<0.05, n=6) was 39.6±15.6% and the “percentage of normal rhythms” value ([2]; 1 μM, baseline 41.4±9.7, p<0.01, n=6) was 14.5±18.1%. For the same compound, the “propagation direction and speed in video (FIGS. 12A-12B)” value ([2]; 10 μM) was “relatively constant”, the “representative spectrogram, effect” value ([2]; 10 μM) was “extra peaks appeared to the right of the original DF” and the “wave fronts counted in representative spatio-temporal map (1 min)” value ([2]; 10 μM, 32 before treatment) was 32. The “average SampEn (smaller scale 1-5)” value ([2]; 10 μM, baseline 0.57±0.06, p<0.05, n=6) was 0.60±0.04, the “DFA fluctuation function (smaller scale 3-25)” value ([2]; 10 μM, baseline 2.24±0.23, p<0.05, n=6) was 2.11±0.27 and the “number of groups of activation patterns” value ([2]; 10 μM, baseline 6±0.7, p<0.05, n=9) was 6.8±1.1. The “percentage of normal rhythms” value ([2]; 10 μM, baseline 42.4±6.9, p<0.05, n=9) was 13.1±17.4%, the “DFA fluctuation function (larger scale 26-46)” value ([2]; 100 μM, baseline 1.63±0.19, p<0.05, n=10) was 1.46±0.21 and the “DFA fluctuation function (smaller scale 3-25)” value ([2]; 100 μM, baseline 2.31±0.12) was 2.19±0.13. The “percentage of dominant patterns (based on post-treatment data, FIG. 3E), third pattern” value ([2]; 100 μM, baseline 20.3±10.8, p<0.0001, n=5) was 7.5±5.8%, the “percentage of dominant baseline activation patterns, first pattern” value ([2]; 100 μM, baseline 34.4±3.7, p<0.01, n=4) was 11.4±12.9% and the percentage of brady-rhythms ([2]; 100 μM, baseline 34.7±9.1, p<0.05, n=6) was 53.9±26.8%. For the same compound, the “percentage of normal rhythms” value ([2]; 100 μM, baseline 53.1±8.1, p<0.05, n=6) was 33.4±23.3%, the “amplitude of slow waves” value ([2]; 100 μM, baseline 267.3±80.9, p<0.01, n=6) was 199.7±48.8 μV and the slope of waveforms ([2]; 100 μM, baseline 439.3±124.3, p<0.001, n=6) was 299.0±76.5 μV s^−1. For the same compound, the “dominant frequency (DF), change vs baseline” value ([2]; 0.1-100 μM, p>0.05, n=6-9) was “No significant differences”, the “dominant power (DP), change vs baseline” value ([2]; 0.1-100 μM, p>0.05, n=6-9) was “No significant differences” and the “propagation velocities, effect” value ([2]; 0.1-100 μM, p>0.05, n=6-9) was “did not affect”. The “waveform period, change vs baseline” value ([2]; 0.1-100 μM, p>0.05, n=6-9) was “No significant differences”, the “average SampEn (smaller scale 1-5)” value ([2]; 1 M, baseline 0.57±0.06, p<0.01, n=8) was 0.59±0.05 and the “DFA fluctuation function (larger scale 26-46)” value ([2]; 1 M, baseline 1.74±0.26, p<0.01, n=8) was 1.61±0.29. The “DFA fluctuation function (larger scale 26-46)” value ([2]; 10 M, baseline 1.73±0.16, p<0.05, n=6) was 1.53±0.19.
